Experimental data: US9388389B2, “JFH-1 based HCV cell culture systems for NS5A of genotypes 1-7” (Hvidovre Hospital, priority 2009, dated 2016)

Experiments:
Huh7.5 cells [1] = assay: Spread of infection in culture, anti-Core immunostaining; format: cell-based; settings: for percentage of culture infected: day 8 after transfection
Experimental: (§1) Culturing of Huh7.5 cells was done as described by Gottwein et al. 2007. One day prior to transfection or infection, naïve Huh7.5 cells were plated at 4×10^5/well in 6-well plates. In vitro transcription was carried out for 2 hours with T7 RNA polymerase (Promega) on 5 μg plasmid linearized with XbaI and treated with Mung Bean Nuclease (New England Biolabs, Beverly, Mass., USA) to yield the exact HCV 3′ end. For transfection, 2.5 μg of unpurified RNA transcripts were incubated with 5 μL Lipofectamine2000™ (Invitrogen) in 500 μL Opti-MEM (Invitrogen) for 20 min at room temperature. RNA-Lipofectamine2000™ transfection complexes were left on cells for 16-24 hours before washing. For infection, virus-containing supernatant was left on cells for 6-24 hours. Supernatants collected during experiments were sterile filtered and stored at −80° C.
(§2) Anti-Core immunostaining was done with mouse anti-HCV Core protein monoclonal antibody (B2) (Anogen Mississauga, Ontario, Canada) as primary antibody and Alexa Fluor 594 goat anti-mouse IgG (H+L) (Invitrogen) as secondary antibody. HCV RNA titers were determined by a TaqMan™ real-time PCR assay. Infectivity titers were determined as follows: 6×10^3 naïve Huh7.5 cells were plated per well in a poly-D-lysine coated 96-well plate (Nunc) one day before inoculation with three replicates of individual 10-fold dilutions of cell culture supernatants. Inocula were left on cells for 48 hours and cells were fixed using ice could methanol. After washing, blocking buffer (1% BSA, 0.2% skim milk) was added for 20 min and endogenous peroxidases were inhibited by application of H2O2 for 5 min. Primary antibody (anti-NS3, clone H26, Abcam, Cambridge, UK) diluted 1:1000 was left on cells for 3-4 days. Secondary antibody was ECL anti-mouse IgG HRP-linked whole antibody (GE Healthcare Amersham, Brondby, Denmark). Staining was developed using DAB substrate kit (DAKO, Glostrup, Denmark). The number of focus-forming units (FFU) per well were counted manually (dilutions with 5-100 FFU counted) or automatically. Automatic counting was performed on an ImmunoSpot Series 5 UV Analyzer™ (CTL Europe GmbH, Aalen, Baden-Württemberg, DE) with customized software. From FFU counts in experimental wells, the mean of spot counts of negative control wells was subtracted (typically around 5 spots).

Huh7.5 cells [2] = assay: Genetic stability, direct sequencing of complete ORF after passage; settings: Table 2; ORF sequenced after passage to naïve cells
Experimental: RNA was extracted from cell culture supernatant using (Highly Pure Viral Nucleic Acid Kit™, Roche, Mannheim, Del.). RT-PCR was done using SuperScriptIII™ (Invitrogen, Carlsbad, Calif., USA). In 1st round PCR the Advantage 2 PCR Enzyme System was used. Cycle parameters were 35 s at 99° C., 30 s at 67° C. and 10 min (cycle 1-5), 11 min (cycle 6-15), 12 min (cycle 16-25) or 13 min (cycle 26-35) at 68° C. 12˜1 kb products were synthesized in overlapping nested PCRs covering the entire ORF using primer pairs as previously described. Primer pairs 8, 9 and 10 were modified to the genotype specific NS5A sequence (Table 20, SEQ ID NO 163-192). Cycle parameters were 35 s at 99° C. followed by 35 cycles with 35 s at 99° C., 30 s at 67° C. and 6 min at 68° C.
All sequence reactions were performed at Macrogen Inc., Seoul, South Korea. Sequence analysis was performed with Sequencher™ (Gene Codes Corporation) Vector NTI 11 (Invitrogen) and BioEdit™ (Tom Hall, Ibis Therapeutics). HCV sequences were retrieved from the European HCV database (euHCVdb; at the http: internet location //euhcvdb.ibcp.fr/euHCVdb/) and the Los Alamos HCV sequence database (LANL; at the http: Internet location //hcv.lanl.gov/content/hcv-db/index).
Genetic stability of NS5A recombinants after passage to naïve cells. Supernatant samples from transfection culture were passaged to naïve Huh7.5 cells and the complete ORF was sequenced after spread of infection in culture to check for further need of adaptation.

Huh7.5 cells [3] = assay: Infectivity titers (FFU) in supernatant after RNA transfection or viral passage; format: cell-based; settings: for 1st passage Log(FFU/mL): maximum infectivity titer, two values separated by slash = two independent passages; for Peak titers Transfection Log (FFUs/mL) / Peak titers Viral passage Log (FFUs/mL): Table 2; for Peak titers Transfection Log (FFUs/mL): maximum infectivity titer observed in transfection experiments; for Peak titers Viral passage Log (FFUs/mL): maximum infectivity titer observed in viral passage experiments
Experimental: (§3) To determine the efficiency of the developed system, HCV RNA titers are determined in IU/ml (international units/ml) with Taq-Man Real-Time-PCR and infectious titers are determined with a focus-forming units (FFU) method: in this method, infectivity titers are determined by infection of cell culture replicates with serial dilutions of virus containing supernatants and, following immuno-stainings for HCV antigens, counting of HCV-antigen positive cell foci. Alternatively the infectious titers are determined as 50% tissue culture infectious dose.
as §1, §2

Huh7.5 cells [4] = assay: HCV RNA titers by TaqMan real-time PCR; format: cell-based; settings: for 1st passage Log(IU/mL): Table 1b, maximum HCV RNA titer, two values separated by slash = two independent passages
Experimental: as §3, §2

J6(2a) NS5A recombinant = assay: IFN-alpha 2b treatment of infected cultures; format: cell-based, hepatitis C virus; settings: genotype 2a, isolate J6 NS5A recombinant
Experimental: (§4) Huh7.5 cells were infected with J6/JFH1 with NS5A of the indicated isolate (or ISDR type). J6/JFH1 was included with two infectious doses to control for impact of dose variability. The infectious dose of other recombinants was in the range between. […] On day three cells were fixed and immunostained for NS3 expression. The number of single infected cells was determined by automated counting of individual wells. Values are shown as percentage infected cells compared to the average for non-treated controls of the given recombinant. Data were fitted to a sigmoidal dose-response curve with the equation Y=1/(1+10^((Log(EC50)−Log(IU/mL))*HillSlope)), where Y is the response in %.
(§5) 5×10^3 naïve Huh7.5 cells were plated per well in a poly-D-lysine coated 96-well plate (Nunc, Roskilde, D K) one day before infection with different recombinant viruses. Infectious doses were chosen to aim at 400-1000 single infected cells in non-treated wells at the end of the experiment. J6/JFH1 was included with two infectious doses (high and low) to control for impact of dose variability. The infectious dose of other recombinants was in the range between. […] On day three cells were fixed and immunostained for NS3 expression as described above. In parallel, cell viability was monitored with CellTiter™ 96 AQueous One Solution Cell Proliferation Assay (Promega, Madison, Wis. USA). The number of single infected cells was determined by automated counting of individual wells as described above.
(§6) On day three cells were fixed and immunostained for NS3 expression. The number of single infected cells was determined by automated counting (FIG. 15).

[5] = test system: ED43(4a) NS5A recombinant; assay: IFN-alpha 2b treatment of infected cultures; format: cell-based, hepatitis C virus; settings: genotype 4a, isolate ED43 NS5A recombinant
Experimental: as §4, §5, §6

JFH1(2a) NS5A (J6/JFH1) = assay: IFN-alpha 2b treatment of infected cultures; format: cell-based, hepatitis C virus; settings: genotype 2a, isolate JFH1 NS5A (J6/JFH1)
Experimental: as §4, §5, §6

[6] = test system: HK6a(6a) NS5A recombinant; assay: IFN-alpha 2b treatment of infected cultures; format: cell-based, hepatitis C virus; settings: genotype 6a, isolate HK6a NS5A recombinant
Experimental: as §4, §5, §6

S52(3a) NS5A recombinant = assay: IFN-alpha 2b treatment of infected cultures; format: cell-based, hepatitis C virus; settings: genotype 3a, isolate S52 NS5A recombinant
Experimental: as §4, §5, §6

[7] = test system: QC69(7a) NS5A recombinant; assay: IFN-alpha 2b treatment of infected cultures; format: cell-based, hepatitis C virus; settings: genotype 7a, isolate QC69 NS5A recombinant
Experimental: as §4, §5, §6

J4(1b) NS5A recombinant = assay: IFN-alpha 2b treatment of infected cultures; format: cell-based, hepatitis C virus; settings: genotype 1b, isolate J4 NS5A recombinant
Experimental: as §4, §5, §6

[8] = test system: SA13(5a) NS5A recombinant; assay: IFN-alpha 2b treatment of infected cultures; format: cell-based, hepatitis C virus; settings: genotype 5a, isolate SA13 NS5A recombinant
Experimental: as §4, §5, §6

[9] = test system: H77C(1a) NS5A recombinant; assay: IFN-alpha 2b treatment of infected cultures; format: cell-based, hepatitis C virus; settings: genotype 1a, isolate H77C NS5A recombinant
Experimental: as §4, §5, §6

TN(1a) NS5A recombinant = assay: IFN-alpha 2b treatment of infected cultures; format: cell-based, hepatitis C virus; settings: genotype 1a, isolate TN NS5A recombinant
Experimental: as §4, §5, §6

[10] = test system: J4(1b) NS5A ISDR mutant recombinant; assay: IFN-alpha 2b treatment of infected cultures; format: cell-based, hepatitis C virus; settings: genotype 1b, isolate J4 NS5A
Experimental: as §4, §5, §6

Substance: ED43/JFH1(ED43-NS5A): ED43 Core-NS2/NS5A recombinant without mutations adaptive for ED43/JFH1, SEQ ID NO 51
- spread / replication in culture (Huh7.5 cells [1]; after transfection into Huh7.5 cells): never spread in culture

Substance: ED43/JFH12819,3269(ED43-NS5A)5270/7131: ED43 Core-NS2/NS5A recombinant with T5270C/A7131G, SEQ ID NO 193
- spread in culture / to the majority of culture, day after transfection (Huh7.5 cells [1]; Huh7.5 cells, after transfection of RNA transcripts): 17 days
- percentage of culture infected (Huh7.5 cells [1]): 30%

Substance: ED43/JFH12819, 3269(ED43-NS5A): JFH1-based recombinant with Core-NS2 and NS5A of genotype 4a ED43, SEQ ID NO 52
- percentage of culture infected (Huh7.5 cells [1]): 1%
- Genetically stable (Huh7.5 cells [2]): No
- 1st passage Log(FFU/mL) (Huh7.5 cells [3]; Table 1b): 1.8 Log(FFU/mL)
- Peak titers Transfection Log (FFUs/mL) (Huh7.5 cells [3]): 2.0 Log (FFUs/mL)
- Peak titers Viral passage Log (FFUs/mL) (Huh7.5 cells [3]): 1.8 Log (FFUs/mL)
- 1st passage Log(IU/mL) (Huh7.5 cells [4]): 7.1 Log(IU/mL)
- Peak titers Viral passage Log (IU/mL) (Huh7.5 cells [4]; Table 2, maximum HCV RNA titer in all passage samples analyzed): 7.1 Log (IU/mL)

Substance: HK6a/JFH11389, 1590(HK6a-NS5A)7161: HK6a Core-NS2/NS5A recombinant with T7161A, SEQ ID NO 57
- Transfection Log(FFU/mL) (Huh7.5 cells [3]; Table 1b, maximum infectivity titer after transfection, Core-NS2 and NS5A of same genotype): 2.7 Log(FFU/mL)
- 1st passage Log(FFU/mL) (Huh7.5 cells [3]; Table 1b): 3.3 Log(FFU/mL)
- Peak titers Transfection Log (FFUs/mL) (Huh7.5 cells [3]): 2.7 Log (FFUs/mL)
- Peak titers Viral passage Log (FFUs/mL) (Huh7.5 cells [3]): 3.3 Log (FFUs/mL)

Substance: HK6a/JFH11389, 1590(HK6a-NS5A): JFH1-based recombinant with Core-NS2 and NS5A of genotype 6a HK6a, SEQ ID NO 56
- 1st passage Log(IU/mL) (Huh7.5 cells [4]): 7.0 Log(IU/mL)

Substance: IFN-α
- IFN-α, EC50 (IU/mL), original (J6(2a) NS5A recombinant): 0.12 IU/mL
- IFN-α, EC50 (IU/mL), original [5]: 0.15 IU/mL
- IFN-α, EC50 (IU/mL), original (JFH1(2a) NS5A (J6/JFH1)): 0.25 IU/mL
- IFN-α, EC50 (IU/mL), original [6]: 0.21 IU/mL
- IFN-α, EC50 (IU/mL), original (S52(3a) NS5A recombinant): 0.27 IU/mL
- IFN-α, EC50 (IU/mL), original [7]: 0.18 IU/mL
- IFN-α, EC50 (IU/mL), original (J4(1b) NS5A recombinant): 0.12 IU/mL
- IFN-α, EC50 (IU/mL), original [8]: 0.32 IU/mL
- IFN-α, EC50 (IU/mL), original [9]: 0.25 IU/mL
- IFN-α, EC50 (IU/mL), original (TN(1a) NS5A recombinant): 0.28 IU/mL
- IFN-α, EC50 (IU/mL), 'Sensitive-type' ISDR mutant [10]: 0.12 IU/mL
